Measured values: patent US7141560B2, “Alanine 2,6-dialkoxyphenyl ester derivatives as hypnotics” (Akzo Nobel N.V., priority 2001, dated 2006)

System: mice
Assay: Hypnotic activity: loss of righting reflex after intravenous injection in mice
Assay type: in vivo
Conditions: intravenous injection over 10 seconds, dose causing loss of righting reflex for minimum 30 seconds in 50% of treated mice; for ED50: Mus musculus, read-out: HD50 (hypnotic dose50)
Procedure: The hypnotic potency of the alanine 2,6-dialkoxyphenyl ester derivatives of the invention was determined upon their intravenous administration in mice. The dose required to cause a loss of righting reflex for a minimum period of 30 seconds in 50% of treated mice after intravenous injection over 10 seconds was determined. This dose is termed the HD50 (hypnotic dose50) and is expressed in μmol.kg^−1. These in vivo experiments were carried out as described in detail by Anderson et al., J. Med. Chem. 1997, 40, 1668–1681.

| Molecule | HD50 (hypnotic dose50) [µmol/kg] | ED50 [µmol/kg] |
| --- | --- | --- |
| COCCN(CCOC)C(COC)C(=O)Oc1c(OC)cc(C)cc1OC (centres unmarked) [Example 4a, 2-[N-Bis(2-methoxyethyl)amino]-3-methoxypropionic acid, 2,6-dimethoxy-4-methylphenyl ester] | 28 |  |
| COC(=O)CC(C(=O)Oc1c(OC)cccc1OC)N1CCCCCC1 (centres unmarked) [Example 30a, Butanedioic, 2-(1-hexahydroazepinyl)-, 1-(2,6-dimethoxyphenyl)ester, 4-methyl ester] | 23 |  |
| 2-[N-(Bis(2-methoxyethyl)amino)]-4-ethoxybutyric acid, 2,6-dimethoxy-4-methylphenyl ester [Example 10v] | 41 |  |
| COc1cccc(OC)c1OC(=O)C(CN1CCOCC1)N1CCc2ccccc2C1 (centres unmarked) [Example 19b, 3-(4-Morpholinyl)-2-(1,2,3,4-tetrahydroisoquinoline)propanoic acid, 2,6-dimethoxyphenyl ester] | 29 |  |
| CCOCCC(C(=O)Oc1c(OC)cc(C)cc1OC)N1CCCOCC1 (centres unmarked) [Example 10w, 4-Ethoxy-2-[4-(hexahydro-1-oxazepinyl)]butyric acid, 2,6-dimethoxy-4-methylphenyl ester] | 26 |  |
| COC(=O)CCC(C(=O)Oc1c(OC)cccc1OC)N1CCSCC1.Cl (centres unmarked) [Example 47c, Pentanedioic acid, 2-(N-thiomorpholinyl)-, 1-(2,6-dimethoxyphenyl)ester, 5-methyl ester hydrochloride (1:1) salt] | 44 |  |
| COCCC(C(=O)Oc1c(OC)cc(C)cc1OC)N1CCCOCC1 (centres unmarked) [Example 10j, 2-[4-(Hexahydro-1-oxazepinyl)]-4-methoxybutyric acid, 2,6-dimethoxy-4-methylphenyl ester] | 25 |  |
| CCC1(C)CN(C(CN2CCOCC2)C(=O)Oc2c(OC)cccc2OC)CCO1 (centres unmarked) [Example 19f, 2-[4-(2-Ethyl-2-methylmorpholinyl)]-3-(4-morpholinyl)propanoic acid, 2,6-dimethoxyphenyl ester] | 21 |  |
| COCCC(C(=O)Oc1c(OC)cccc1OC)N1CCCOCC1 (centres unmarked) [Example 10a, 2-[4-(Hexahydro-1-oxazepinyl)]-4-methoxybutyric acid, 2,6-dimethoxyphenyl ester] | 15 |  |
| COCCC(C(=O)Oc1c(OC)cccc1OC)N(CCOC)CCOC (centres unmarked) [Example 10h, 2-[N-(Bis(2-methoxyethyl)amino)]-4-methoxybutyric acid, 2,6-dimethoxyphenyl ester] | 27 |  |
| CCN(CC)C(=O)CC(C(=O)Oc1c(OC)cc(C)cc1OC)N1CCOCC1 (centres unmarked) [Example 32a, Butanedioic, 4-(diethylamino)-4-oxo-, 2-(4-morpholinyl)-, 1-(2,6-dimethoxy4-methylphenyl)ester] | 38 |  |
| COCCC(C(=O)Oc1c(OC)cc(C)cc1OC)N1CCOCC1 (centres unmarked) [Example 10i, 4-Methoxy-2-[4-morpholinyl]butyric acid, 2,6-dimethoxy-4-methylphenyl ester] |  | 36 |
| COCCC(C(=O)Oc1c(OC)cccc1OC)N1CCCOCC1 (centres unmarked) [Example 51a, (ξ)-2-[4-(Hexahydro-1-oxazepinyl)]-4-methoxybutyric acid,2,6-dimethoxyphenyl ester] | 15 |  |
| CCOCCC(C(=O)Oc1c(OC)cccc1OC)N(CCOCC)CCOCC (centres unmarked) [Example 10s, 2-[N-(Bis(2-ethoxyethyl)amino)]-4-ethoxybutyric acid, 2,6-dimethoxyphenyl ester] | 47 |  |
| COc1cccc(OC)c1OC(=O)C(CCSC)N1CCCCCCC1 (centres unmarked) [Example 40d, Butanoic acid, 2-(1-hexahydroazocinyl)-4-(methylthio), 1-(2,6-dimethoxyphenyl)ester] | 35 |  |
| COc1cccc(OC)c1OC(=O)C(CN1CCOCC1)N1CCO[C@H](C)C1 (stereo partly drawn) [Example 19d, 2-[(R)-4-(2-Methylmorpholinyl)]-3-(4-morpholinyl)propanoic acid, 2,6-dimethoxyphenyl ester] | 27 |  |
| COc1cccc(OC)c1OC(=O)C(CN1CCc2ccccc2C1)N1CCOCC1 (centres unmarked) [Example 19j, 2-(4-Morpholinyl)-3-(1,2,3,4-tetrahydroisoquinoline)propanoic acid, 2,6-dimethoxyphenyl ester] | 21 |  |
| CCOCCC(C(=O)Oc1c(OC)cccc1OC)N(CCOC)CCOC (centres unmarked) [Example 10r, 2-[N-(Bis(2-methoxyethyl)amino)]-4-ethoxybutyric acid, 2,6-dimethoxyphenyl ester] | 27 |  |
| COc1cccc(OC)c1OC(=O)C(CN1CCOCC1)N1CCOCC1 (centres unmarked) [Example 18c, 2,3-Di-(4-morpholinyl)propanoic acid, 2,6-dimethoxyphenyl ester] |  | 31 |

| Molecule | HD50 (hypnotic dose50) [µmol/kg] | ED50 [µmol/kg] |
| --- | --- | --- |
| COC(=O)CC(C(=O)Oc1c(OC)cccc1OC)N1CCCCC1 (centres unmarked) [Example 28a, Butanedioic, 2-(1-piperidinyl)-, 1-(2,6-dimethoxyphenyl)ester, 4-methyl ester] | 26 |  |
| COC(=O)CCC(C(=O)Oc1c(OC)cccc1OC)N1CCCCCC1.Cl (centres unmarked) [Example 47b, Pentanedioic acid, 2-(1-hexahydroazepinyl)-, 1-(2,6-dimethoxyphenyl)ester, 5-methyl ester hydrochloride (1:1) salt] | 36 |  |
| COc1cccc(OC)c1OC(=O)C(CN1CCOCC1)N1CCSC(C)(C)C1 (centres unmarked) [Example 19c, 2-[N-(2,2-Dimethylthiomorpholinyl)]-3-(4-morpholinyl)propanoic acid, 2,6-dimethoxyphenyl ester] | 28 |  |
| COc1cccc(OC)c1OC(=O)C(CCN1CCOC(C)(C)C1)N1CCOC(C)(C)C1 (centres unmarked) [Example 21b] | 25 |  |
| COCCN(CCOC)C(COC)C(=O)Oc1c(OC)cc(C)cc1OC (centres unmarked) [Example 3i, 2-[N-Bis(2-methoxyethyl)amino]-3-methoxypropionic acid, 2,6-dimethoxy-4-methylphenyl ester] | 28 |  |
| COCCN(CCOC)C(COC)C(=O)Oc1c(OC)cccc1OC (centres unmarked) [Example 3b, 2-[N-Bis(2-methoxyethyl)amino]-3-methoxypropionic acid, 2,6-dimethoxyphenyl ester] | 41 |  |
| COc1cccc(OC)c1OC(=O)C(CC(=O)N1CCCCC1)N1CCCCC1 (centres unmarked) [Example 34b, Butanedioic, 4-(1-piperidinyl)-4-oxo-, 2-(1-piperidinyl)-1-(2,6-dimethoxyphenyl)ester] | 39 |  |
| COC[C@@H](C(=O)Oc1c(OC)cccc1OC)N1CCCOCC1 [Example 52b, 2S-[4-(Hexahyro-1-oxazepinyl)]-3-methoxypropionic acid ,2,6-dimethoxyphenyl ester] | 40 |  |
| COC(=O)CC(C(=O)Oc1c(OC)cc(C)cc1OC)N1CCOCC1 (centres unmarked) [Example 26b, Butanedioic, 2-(4-morpholinyl)-, 1-(2,6-dimethoxy-4-methylphenyl)ester, 4-methyl ester] | 46 |  |
| COc1cccc(OC)c1OC(=O)C(CC(=O)N1CCCC1)N1CCCCCC1 (centres unmarked) [Example 36, Butanedioic, 2-(1-hexahydroazepinyl)-4-oxo-4-(1-pyrrolidinyl)-, 1-(2,6-dimethoxyphenyl)ester] | 34 |  |
| COCCN(CCOC)C(CC(=O)OC)C(=O)Oc1c(OC)cccc1OC (centres unmarked) [Example 24a, Butanedioic, 2-[N-bis(2-methoxyethyl)amino]-, 1-(2,6-dimethoxyphenyl)ester, 4-methyl ester] | 48 |  |
| COc1cccc(OC)c1OC(=O)C(CN1CCOCC1)N1CCSCC1 (centres unmarked) [Example 19a, 3-(4-Morpholinyl)-2-(N-thiomorpholinyl)propanoic acid, 2,6-dimethoxyphenyl ester] |  | 17 |
| COCCCN(CCCOC)C(COC)C(=O)Oc1c(OC)cc(C)cc1OC (centres unmarked) [Example 3p, 2-[N-Bis(3-methoxypropyl)amino]-3-methoxypropionic acid, 2,6-dimethoxy-4-methylphenyl ester] | 46 |  |
| CCOCCN(CCOCC)C(COC)C(=O)Oc1c(OC)cccc1OC (centres unmarked) [Example 3g, 2-[N-Bis(3-ethoxyethyl)amino]-3-methoxypropionic acid, 2,6-dimethoxyphenyl ester] | 25 |  |
| COc1cccc(OC)c1OC(=O)C(CN1CCOC(C)(C)C1)N1CCOC(C)(C)C1 (centres unmarked) [Example 18b, 2,3-Di-[4-(2,2-dimethylmorpholinyl)]propanoic acid, 2,6-dimethoxyphenyl ester] | 31 |  |
| COCCN(CCOC)C(COC)C(=O)Oc1c(OC)cc(C)cc1OC (centres unmarked) [Example 51d, (ξ)-2-[N-Bis(2-methoxyethyl)amino]-3-methoxypropionic acid, 2,6-dimethoxy-4-methylphenyl ester] | 36 |  |
| COCCC(C(=O)Oc1c(OC)cccc1OC)N1CCC(OC)CC1 (centres unmarked) [Example 10d, 4-Methoxy-2-[1-(4-methoxypiperidinyl)]butyric acid, 2,6-dimethoxyphenyl ester] | 21 |  |
| COc1cccc(OC)c1OC(=O)C(CN1CC=CCC1)N1CCSCC1 (centres unmarked) [Example 19k, 3-(1,2,3,6-Tetrahydropyridinyl)-2-(N-thiomorpholinyl)propanoic acid, 2,6-dimethoxyphenyl ester] | 15 |  |
| COc1cc(C)cc(OC)c1OC(=O)C(CC(=O)N1CCCCC1)N1CCCCC1 (centres unmarked) [Example 34a, Butanedioic, 4-(1-piperidinyl)-4-oxo-, 2-(1-piperidinyl)-, 1-(2,6-dimethoxy-4-methylphenyl)ester] | 38 |  |
